From patent US8188049B2, “Peptides having activities of epidermal growth factor and its uses” (Caregen Co., Ltd., priority 2006, dated 2012)

Legend:
NIH-3T3 cell = assay: Stability of tridecapeptide: residual activity by MTT assay after storage at 37° C; format: physicochemical; details: 50 mM Tris-HCl pH 8.0, 37° C, days 0-100; peptide 10 μg/ml, EGF 1 μg/ml; MTT on NIH-3T3
Method: To evaluate stability of the synthesized and purified tridecapeptide of Example 1, the tridecapeptide was dissolved in 50 mM Tris-HCl (pH 8.0) to a concentration of 10 μg/ml. The recombinant EGF protein (Sigma-Aldrich) produced in E. coli was prepared as a control in the same buffer to a concentration of 1 μg/ml. The prepared solutions were introduced into glass vials and kept to stand at 37° C. Afterwards, the solutions were taken on days 0, 1, 10, 25, 50, 75 and 100 and subjected to MTT assay (Scudiero, D. A., et al. Cancer Res. 48:4827-4833 (1988)) using NIH-3T3 cell (Korean Cell Line Bank) to determine residual activities of the peptide and EGF (FIG. 2). The results were given as relative values to the activity (100%) of sample taken on day 0.

hyaluronic acid = assay: Hyaluronic acid level by ELISA; format: cell-based, human; details: HaCat, 5 μmole, 72 hr
Method: Furthermore, HaCat cell lines were incubated for 72 hr with 5 μmole of the present tridecapeptides and then the level of hyaluronic acid, a marker indicating the improvement in skin wrinkle, was measured using Hyaluronic acid ELISA kit (Echelon Biosciences Inc, USA) (FIG. 8).

NIH3T3 cells = assay: Cell motility after scratching the culture dish; format: cell-based; details: NIH3T3, 1 μg/ml, 1 and 3 day treatment
Method: We analyzed cell motility to further verify cell proliferation potency. NIH3T3 cells were plated on 60 mm-culture dishes and cultured to a suitable fluency. The bottom surface of culture dishes was scratched using pipette and incubated with 1 μg/ml of the present peptides, followed by observing cell motility. In FIG. 6, panels A and B show cell samples non-treated with peptides and panels C and D, cell samples treated with 1 μg/ml peptides. Images of A and C were taken after 1 day-treatment, and those of B and D after 3 day-treatment.

Human keratinocytes = assay: Cell adherency to peptide-pretreated culture dishes; format: cell-based; details: 24 hr
Method: To analyze effects of peptides of this invention on proliferation of keratinocytes, SRB (Sulforhodamine B) colorimetric assay was carried out using HaCaT kerationcyte according to Rizzino et al method (Rizzino, et al. Cancer Res., 48:4266 (1988)). HaCaT ketatinocytes (The Korean Cell Line Bank) were cultured in 250 ml-flasks containing EMEM (Eagle's minimal essential media, Gibco, U.S.A.) supplemented with […] (fetal bovine serum). HaCaT ketatinocytes cultured were treated with 0.25% trypsin solution to detach cells from the bottom of culture flasks and centrifuged to collect cell pellets. Cells were resuspended in EMEM not containing FBS, its aliquot (4×10^3) cells was added to each well of 96-well plates and cultured under 7% CO2 for 24 hr at 37° C. After 24-hr culture, the medium was changed with a fresh medium not containing serum and cells were incubated with human EGF or the tri-decapeptide (10 ng/ml or 1,000 ng/ml) dissolved in 10% DMSO for 72 hr under the same conditions as described above. After removing supernatants, cells were washed once using PBS (phosphate buffered saline) and incubated with SRB solution (Sigma-Aldrich). Cells were washed with PBS and observed under a microscope to examine cell viability (FIG. 3). In addition, absorbance at 590 nm was measured to analyze cell proliferation (FIG. 4). […]

EGF = assay: Autocrine effect: EGF level in culture by ELISA; format: cell-based, human; details: HaCat, 1 μg/ml, 6 days
Method: For examining autocrine effects, HaCat cell lines were incubated for 6 days with the tridecapeptides of this invention (1 μg/ml) and then the level of EGF in culture was measured using the ELISA kit (R&D, USA).

HaCaT keratinocytes = assay: SRB colorimetric assay, growth of HaCaT keratinocytes; format: cell-based, human; details: 72 hr; for cell growth / proliferation of keratinocytes (absorbance at 590 nm): 10 ng/ml or 1,000 ng/ml, serum-free
Method: To analyze effects of peptides of this invention on proliferation of keratinocytes, SRB (Sulforhodamine B) colorimetric assay was carried out using HaCaT kerationcyte according to Rizzino et al method (Rizzino, et al. Cancer Res., 48:4266 (1988)). HaCaT ketatinocytes (The Korean Cell Line Bank) were cultured in 250 ml-flasks containing EMEM (Eagle's minimal essential media, Gibco, U.S.A.) supplemented with […] (fetal bovine serum). HaCaT ketatinocytes cultured were treated with 0.25% trypsin solution to detach cells from the bottom of culture flasks and centrifuged to collect cell pellets. Cells were resuspended in EMEM not containing FBS, its aliquot (4×10^3) cells was added to each well of 96-well plates and cultured under 7% CO2 for 24 hr at 37° C. After 24-hr culture, the medium was changed with a fresh medium not containing serum and cells were incubated with human EGF or the tri-decapeptide (10 ng/ml or 1,000 ng/ml) dissolved in 10% DMSO for 72 hr under the same conditions as described above. After removing supernatants, cells were washed once using PBS (phosphate buffered saline) and incubated with SRB solution (Sigma-Aldrich). Cells were washed with PBS and observed under a microscope to examine cell viability (FIG. 3). In addition, absorbance at 590 nm was measured to analyze cell proliferation (FIG. 4). Cell adherency to culture dishes was tested using non-treated culture dishes and peptide-pretreated culture dishes. Human keratinocytes were plated on the culture dishes and then incubated for 24 hr, followed by observation under a microscope.

[1] = listed as peptide of this invention

Substance: NH2-Cys-Met-Tyr-Ile-Glu-Gly-Gly-Gly-Gly-Arg-Gly-Asp-Gly-OH (H-CMYIEGGGGRGDG-OH) [tridecapeptide]
- residual activity relative to day 0 (100%) (NIH-3T3 cell): not to be decreased
- level of hyaluronic acid (hyaluronic acid): significantly increased
- cell motility (NIH3T3 cells): promote cell motility
- number of cells adhered to culture dishes vs non-treated culture dishes (Human keratinocytes; [1]): significantly high potency
- number of cells adhered to culture dishes vs non-treated culture dishes (Human keratinocytes; listed as peptides of this invention): about three-fold greater
- level of EGF in culture (autocrine effect) (EGF): significantly high autocrine effects on EGF
- level of EGF in culture (autocrine effect) (EGF; listed as present peptide): considerable increase
- cell growth / proliferation of keratinocytes (absorbance at 590 nm) (HaCaT keratinocytes): promotes the growth of human keratinocytes in a dose-dependent manner
- cell growth / proliferation of keratinocytes (absorbance at 590 nm) (HaCaT keratinocytes; [1]): significantly high potency
- cell viability (microscope) (HaCaT keratinocytes; SRB staining): significantly high potency

Substance: recombinant EGF protein: recombinant EGF protein (Sigma-Aldrich) produced in E. coli, used as control [reference compound]
- residual activity relative to day 0 (100%) (NIH-3T3 cell): sharply decreased
